Measured values reported in publication PMC7956625, “Optimization and Anti-Cancer Properties of Fluoromethylketones as Covalent Inhibitors for Ubiquitin C-Terminal Hydrolase L1” (Molecules, 2021).
pIC50, pKi: −log10 of the molar value. Entries after “also recorded” stand apart in the source; their conditions may differ. Where two headings read alike, the source gives them in different places. Where a SMILES comes first, the peptide text is derived from it. The star is where a group is joined. Cbz = O=C(OCc1ccccc1)*; CH2F = FC*

How the values were obtained:
SW1271 cells [1] = assay: SW1271 cell viability assay; type: cell-based; details: 100 µM, 24 h
Description: UCHL1 is a key promoter of cell invasion and metastasis in small cell lung cancer but not necessarily required for cell viability or proliferation. Thus, we chose to assess the efficacy of targeting UCHL1 using the SW1271 small cell lung cancer cell line. […] The Ub-ABP assay was used to confirm on target engagement of UCHL1 within these cells.
Luciferase-constructed cancer cells were seeded in 96-well plates at 10,000 cells/well with the compounds at the indicated concentrations. DMSO was used as vehicle control. Luminescence readings were acquired after adding 1% D-luciferin (GoldBio, St. Louis, MO, USA) after 24 h. Cell viability was determined by the ratio of luminescence reading compared to the one at 0 h, and normalized to vehicle control.

UCHL1 [2] = biological target: T1, UCHL1 (Homo sapiens, UniProt P09936); assay: Fluorescence-based Ub-Rho deubiquitinase activity assay; type: biochemical; set-up: made in house
T1 sequence (P09936 1-223): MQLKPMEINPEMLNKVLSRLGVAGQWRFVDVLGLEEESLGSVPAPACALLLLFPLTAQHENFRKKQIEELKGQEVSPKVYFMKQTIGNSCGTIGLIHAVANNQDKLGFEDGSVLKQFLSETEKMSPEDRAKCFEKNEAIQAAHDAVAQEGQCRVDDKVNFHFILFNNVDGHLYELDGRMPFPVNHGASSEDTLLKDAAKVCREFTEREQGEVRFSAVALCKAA
Description: Thus, a 3-h preincubation period was selected for the structure-activity relationship (SAR) comparison of all analogs to ensure full reaction time and for consistent comparison of activity against UCHL1 within the scaffold. […] A 10 mM stock solution was made for each inhibitor in DMSO, then a dilution of 600 µM in reaction buffer was made followed eight by 1:1 serial dilutions. […] These were allowed to incubate, while sealed, for the 3 h at room temperature. […] The % activity was plotted as a function of inhibitor concentration and the data was fitted with non-linear regression analysis to calculate the IC50 values. Errors are reported as the 95% confidence interval calculated from experiments collected in technical triplicate.

SW1271 cells [3] = assay: Scratch wound healing cell migration assay; type: cell-based; details: 100 µM, 24 h
Description: The same experiments were performed on wild type SW1271 cells treated with fluoromethylketone analogs. Molecules 1 and 34 were first assessed for their effect on cell viability at 100 µM to determine if any observed reduction in cell viability may influence the migration assays (Figure 9E). […] Due to the slow reactive nature of the inhibitor and the modest potency the anti-migratory efficacy of these analogs may be improved with longer duration of treatment or increasing the frequency of treatment. Further studies are underway to elucidate the role UCHL1 plays in the migratory cellular pathways using both genetic depletion and inhibitor approaches.
Wild-type or shRNA treated UCHL1 knockdown SW1271 cells were seeded in 12-well plates at 1 million cells/well. The cells were cultured overnight to grow as a confluent single layer. The cross-style wounds were created using pipet tips to scratch on the single layer of cells. The compounds were prepared in full growth media at the desired concentrations and added after the wounds were created. DMSO was used as the vehicle control. Photos of the wounds were captured immediately after adding treatments at 0 h. Photos of the wounds were captured at 0 and 24 h. The areas of cross-style wounds were quantified using Image J 1.52a software. The migration rate (%) was defined as the percentage of area at each timepoint compared to the one at 0 h.

UCHL1 [4] = biological target: T1, UCHL1; assay: Time-dependent inhibitor analysis (kinact/KI); type: biochemical; set-up: made in house
Description: Irreversible covalent inhibitors may be further characterized by determining the reversible binding constant (KI) as well as the rate of the covalent bond formation under saturating conditions (kinact). By determining the IC50 over the course of various timepoints, the pseudo first-order rate constant (kobs) could be calculated. […] The % activity of each inhibitor concentration was the plotted vs. time of pre-incubation and the slope of this plot is the pseudo first-order rate constant (kobs) for inhibition at each concentration. The kobs was plotted as a function of inhibitor concentration and then fit to the equation Y = kinactX/(KI + X) to calculate kinact, KI and kinact/KI as described by Resnick et al..

UCHL3 = biological target: T2, UCHL3 (Homo sapiens, UniProt P15374); assay: Fluorescence-based Ub-Rho deubiquitinase activity assay; type: biochemical; set-up: His (N); made in house; details: top concentration of 200 µM; Figure S1
T2 sequence (P15374 1-230): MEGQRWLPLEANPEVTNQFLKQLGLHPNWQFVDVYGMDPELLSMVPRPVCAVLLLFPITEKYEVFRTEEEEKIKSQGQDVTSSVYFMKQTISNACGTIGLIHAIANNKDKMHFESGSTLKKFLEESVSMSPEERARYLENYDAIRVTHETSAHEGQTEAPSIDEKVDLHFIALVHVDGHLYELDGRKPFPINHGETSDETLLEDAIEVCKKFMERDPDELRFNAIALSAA
Description: The in vitro inhibition of UCHL1 was determined by monitoring the cleavage of rhodamine 110 from substrate Rhodamine110-ubiquitin (Ub-Rho). […]. Thus, a 3-h preincubation period was selected for the structure-activity relationship (SAR) comparison of all analogs to ensure full reaction time and for consistent comparison of activity against UCHL1 within the scaffold. […]. The assay was performed in black 384-well plates (Catalog #12566624, Fisher, Waltham, MA, USA). DUB stock solutions were diluted in reaction buffer (50 mm Tris pH 7.6, 0.5 mm EDTA, 5 mm DTT, 0.1 % (w/v) BSA) to a concentration of 2.5 nM for UCHL1 or 0.025 nM for UCHL3. […] Plates were read immediately and fluorescence of cleaved Rhodamine 110 fluorophore was monitored at λex = 485 nm, λem = 535 nm continuously for 20 min on a Synergy Neo2 instrument (BioTek, Winooski, VT, USA) The raw data was loaded into GraphPad Prism 8 (GraphPad Software, San Diego, CA, USA; www.graphpad.com, accessed on 12 January 2021) and the slope of the linear portion of the fluorescence vs. time curves was calculation for each inhibitor concentration and % activity of the enzyme was determined compared to DMSO-treated controls. […] Errors are reported as the 95% confidence interval calculated from experiments collected in technical triplicate.

Compound	SW1271 cell viability (SW1271 cells [1])	IC50 (UCHL1 [2]; IC50 (µM), 3 h of preincubation with UCHL1, technical triplicate, averages)	migration of SW1271 cells compared to DMSO control (SW1271 cells [3])	pKi (UCHL1 [4])	activity versus UCHL3 (UCHL3)	pIC50 (UCHL1 [2]; 3 h of preincubation with UCHL1, technical triplicate, averages, read-out: IC50)	fold more active than 1 versus UCHL1 (UCHL1 [2]; IC50 comparison, 3 h preincubation)	improvement of KI compared with 1 (UCHL1 [4])	kinact (UCHL1 [4])	kinact/KI (UCHL1 [4])	pKi (UCHL1 [4]; reversible binding constant of covalent inhibition, read-out: KI)
COC(=O)CC[C@H](NC(=O)[C@H](C)NC(=O)[C@@H](NC(=O)OCc1ccccc1)C(C)C)C(=O)CF [Cpd 1, benzyloxycarbonyl-Val-Ala-Glu(γ-methoxy)-fluoromethylketone] (Cbz-Val-Ala-Glu(OMe)-CH2F)	no effect on the cell viability; also recorded: neither 1 nor 34 displayed cytotoxic effect	24 µM	the same reduction of migratory ability was not observed	4.22	no activity						
C#Cc1ccc(COC(=O)N[C@H](C(=O)N[C@@H](C)C(=O)N[C@@H](CCC(=O)OC)C(=O)CF)C(C)C)cc1 [Cpd 34]	no effect on the cell viability; also recorded: did not reduce SW1271 cell viability; also recorded: neither 1 nor 34 displayed cytotoxic effect; also recorded: does not exhibit any cellular toxicity		significantly reduced the ability of the cells to migrate; also recorded: anti-migratory properties		no observable activity	5.11	approximately 3 fold	greater than 3 fold	0.0136 s⁻¹	810 M⁻¹ s⁻¹	4.77
